Results from PubChem BioAssay AID2180 (Vanderbilt High Throughput Screening Facility, 2009).
Active and inactive are the calls of the source. How the calls were made is not given here.

What follows are compounds tested against Metabotropic glutamate receptor 4 (Homo sapiens) (UniProt Q14833) (assay: PubChem AID 2180). Conditions: CHO hmGluR4/Gqi5, calcium mobilization, glutamate CRC fold-shift.
Chain of Metabotropic glutamate receptor 4 (Homo sapiens) (Q14833 whole entry, looked up): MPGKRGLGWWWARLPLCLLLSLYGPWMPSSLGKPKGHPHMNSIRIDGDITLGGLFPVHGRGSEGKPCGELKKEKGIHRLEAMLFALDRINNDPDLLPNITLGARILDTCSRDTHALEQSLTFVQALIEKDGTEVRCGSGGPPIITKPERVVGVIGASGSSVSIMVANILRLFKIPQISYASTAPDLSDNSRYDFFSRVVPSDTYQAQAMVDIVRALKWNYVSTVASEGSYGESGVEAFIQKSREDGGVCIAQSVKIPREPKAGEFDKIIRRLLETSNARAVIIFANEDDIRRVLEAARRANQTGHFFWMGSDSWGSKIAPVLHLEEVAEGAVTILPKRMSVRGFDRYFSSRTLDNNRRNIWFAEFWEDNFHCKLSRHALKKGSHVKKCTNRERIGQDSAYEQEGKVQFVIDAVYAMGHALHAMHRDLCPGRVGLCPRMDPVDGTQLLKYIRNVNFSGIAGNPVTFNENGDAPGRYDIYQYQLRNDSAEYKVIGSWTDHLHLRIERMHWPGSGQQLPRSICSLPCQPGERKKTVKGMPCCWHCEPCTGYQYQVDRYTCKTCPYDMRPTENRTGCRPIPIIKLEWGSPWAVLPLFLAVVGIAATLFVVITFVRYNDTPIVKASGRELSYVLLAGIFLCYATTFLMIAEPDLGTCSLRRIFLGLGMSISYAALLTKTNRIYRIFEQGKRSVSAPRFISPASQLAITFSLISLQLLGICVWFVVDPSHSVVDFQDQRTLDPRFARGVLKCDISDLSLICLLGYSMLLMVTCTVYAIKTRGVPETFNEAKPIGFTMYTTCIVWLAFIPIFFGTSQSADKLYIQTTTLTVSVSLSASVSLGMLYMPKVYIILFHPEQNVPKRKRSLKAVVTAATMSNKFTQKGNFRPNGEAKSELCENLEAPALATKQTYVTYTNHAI

SMILES | Potency
O=C(Nc1ccc(Cl)c(C(F)(F)F)c1)c1ccccn1 | 6060 nM (inactive)
COc1ccc(NC(=O)c2ccccn2)cc1Cl | 1600 nM
O=C(Nc1cccc(Cl)c1)c1ccccn1 | 601 nM
COc1cc(NC(=O)c2ccccn2)ccc1Cl | 381 nM
COc1cc(NC(=O)c2ccccn2)ccc1C | 641 nM
O=C(Nc1ccc(F)c(C(F)(F)F)c1)c1ccccn1 | 5160 nM (inactive)
COc1cc(NC(=O)c2ccccn2)ccc1F | 604 nM
